{
  "source": "patent US9821002B2",
  "about": "“Method for alleviating radiation injury with isorhamnetin-3-O-β-D-glucoside” (Sinotai Oncology Associate., Ltd., priority 2015, dated 2017)",
  "key": {"[1]": {"test_system": "cleaved caspase-9 in BNL CL.2 cells", "assay": "Expression profile of cleaved caspase-9 (Western Blotting) after X-ray irradiation", "format": "cell-based, mouse", "conditions": "5 and 30 μM, 2 h pretreatment, X-ray 15 Gy, 48 hours, normalized to β-actin", "source_text": "(§1) Four groups of BNL CL.2 cells (i.e., a normal control group referred to as Normal Control Group 1-A, an X-ray control group referred to as X-Ray Control Group 1-A, and two experimental groups referred to as Experimental Groups 1-A to 2-A), and six groups of NMuMG cells (i.e., a normal control group referred to as Normal Control Group 1-B, an X-ray control group referred to as X-Ray Control Group 1-B, two isorhamnetin groups referred to as Isorhamnetin Groups 1 to 2, and two experimental groups referred to as Experimental Groups 1-B to 2-B), were prepared based on the procedure set forth in “Source and cultivation of cell lines” of “Experimental materials”. BNL CL.2 cells in each group were cultivated using 5 mL of a corresponding medium shown in Table 1 and a 6-cm Petri dish in an amount of 2×10^5 cells per dish. […]\n(§2) Subsequently, the culture in each group was cultivated in an incubator (37° C., 5% CO2) for 48 hours, and 120 μL of lysis buffer containing CelLytic™ M protein extraction reagent (Sigma-Aldrich) and proteinase inhibitor cocktail (Sigma-Aldrich) was added to the culture in each group, followed by mixing evenly. […] Protein concentration in the total protein sample was determined by means of the Bio-Rad Protein Assay Kit. […]\n(§3) Subsequently, ImageScanner Imaging Software was used for analysis, such that the corresponding protein expression level was semi-quantitatively calculated. […]"}, "[2]": {"test_system": "cleaved caspase-9 in NMuMG cells", "assay": "Expression profile of cleaved caspase-9 (Western Blotting) after X-ray irradiation", "format": "cell-based, mouse", "conditions": "15 and 30 μM, 2 h pretreatment, X-ray 15 Gy, 48 hours, normalized to β-actin", "source_text": "as §1, §2, §3"}},
  "data": [
    {"smiles": "COc1cc(-c2oc3cc(O)cc(O)c3c(=O)c2O[C@@H]2O[C@H](CO)[C@@H](O)[C@H](O)[C@H]2O)ccc1O", "note": "[isorhamnetin-3-O-β-D-glucoside]", "values": [
      {"measurement": "expression level of cleaved caspase-9 versus X-ray control group", "setting": "[1]", "value": "significant reduction in expression level of cleaved caspase-9"},
      {"measurement": "expression level of cleaved caspase-9 versus X-ray control group", "setting": "[2]", "value": "significant reduction in expression level of cleaved caspase-9"}
    ]}
  ]
}
